One may read the IC50 as the concentration needed to halve the response being measured.

Among the data in patent publication US11254668B2, “Pyrazolo[1,5-A]pyrazin-4-yl and related derivatives” (Pfizer Inc., priority 2017, dated 2022) are IC50 values, retold here.

Assay type in all cases: biochemical
What all share (conditions): JAK Caliper enzyme assay

One assay has as its target JAK1 (Homo sapiens (Human), UniProt P23458). Briefly: JAK Caliper Enzyme Assay at 1 mM ATP, JAK1. In a few lines: (§1)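 IC50 (nM) derived from percent conversion of fluorescently labelled peptide, measured by Caliper LabChip mobility-shift separation after EDTA stop. Each JAK family kinase domain (human, recombinant) run at 1 mM ATP and room temperature, conditions set to 20-30% product; DMSO wells define uninhibited baseline.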

The target of a further assay is TYK2 (Homo sapiens (Human), UniProt P29597). In words: JAK Caliper Enzyme Assay at 1 mM ATP, TYK2. In a few lines: (§2)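 Peptide phosphorylation by recombinant human kinase domain, 1 mM ATP, room temperature, EDTA-terminated, detected by microfluidic mobility shift; % effect normalised to DMSO baseline.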
Chain of TYK2 (P29597 897-1176): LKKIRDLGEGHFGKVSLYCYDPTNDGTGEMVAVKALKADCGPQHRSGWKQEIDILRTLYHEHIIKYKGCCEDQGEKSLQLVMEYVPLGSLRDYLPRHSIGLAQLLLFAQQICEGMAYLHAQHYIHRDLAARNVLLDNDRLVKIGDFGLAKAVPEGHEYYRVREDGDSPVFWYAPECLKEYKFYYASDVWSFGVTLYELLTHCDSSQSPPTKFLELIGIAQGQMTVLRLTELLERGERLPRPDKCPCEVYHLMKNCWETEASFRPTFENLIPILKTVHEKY
A further assay concerns the target JAK2 (Homo sapiens (Human), UniProt O60674). In words: JAK Caliper Enzyme Assay at 1 mM ATP, JAK2. In a few lines: as §2
The next assay has as its target JAK3 (Homo sapiens (Human), UniProt P52333). Briefly: JAK Caliper Enzyme Assay at 1 mM ATP, JAK3. The method, boiled down:
as §1

Chain of JAK3 (P52333 822-1111): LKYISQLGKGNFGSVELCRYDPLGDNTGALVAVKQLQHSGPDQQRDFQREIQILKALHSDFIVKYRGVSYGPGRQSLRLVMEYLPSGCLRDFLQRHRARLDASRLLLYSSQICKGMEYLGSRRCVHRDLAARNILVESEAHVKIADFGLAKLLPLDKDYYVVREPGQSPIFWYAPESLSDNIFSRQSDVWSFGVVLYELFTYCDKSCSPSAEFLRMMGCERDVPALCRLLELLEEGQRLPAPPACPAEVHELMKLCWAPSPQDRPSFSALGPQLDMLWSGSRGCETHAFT
Chain of JAK1 (P23458 875-1153): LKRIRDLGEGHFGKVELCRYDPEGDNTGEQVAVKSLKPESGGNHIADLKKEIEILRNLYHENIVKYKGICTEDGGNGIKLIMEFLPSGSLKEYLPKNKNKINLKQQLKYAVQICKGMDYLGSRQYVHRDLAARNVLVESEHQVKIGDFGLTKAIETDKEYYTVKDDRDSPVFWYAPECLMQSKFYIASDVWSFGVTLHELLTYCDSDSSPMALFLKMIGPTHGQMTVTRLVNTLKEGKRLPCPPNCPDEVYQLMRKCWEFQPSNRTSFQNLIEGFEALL
Chain of JAK2 (O60674 849-1124): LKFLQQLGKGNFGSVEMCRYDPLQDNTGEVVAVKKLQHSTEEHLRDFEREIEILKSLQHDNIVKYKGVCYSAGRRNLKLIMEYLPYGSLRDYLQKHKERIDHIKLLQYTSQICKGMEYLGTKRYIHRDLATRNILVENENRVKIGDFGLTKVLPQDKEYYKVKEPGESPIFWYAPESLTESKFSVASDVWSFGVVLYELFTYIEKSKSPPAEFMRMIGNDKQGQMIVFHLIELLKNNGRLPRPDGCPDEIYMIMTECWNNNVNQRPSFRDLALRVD

For `N#CC[C@]1(n2ncc(-c3cc(-c4ccc(OCCN)cc4)cc4ncccc34)n2)C[C@H](C#N)C1` [Example 440, trans-3-(4-{7-[4-(2-aminoethoxy)phenyl]quinolin-5-yl}-2H-1,2,3-triazol-2-yl)-3-(cyanomethyl)cyclobutanecarbonitrile], the IC50 was 6.43 µM on JAK1, 0.139 µM at TYK2, 0.805 µM at JAK2 and more than 10 µM on JAK3.
The like results for `CS(=O)(=O)N1CC(CC#N)(n2ncc(-c3cc(-c4ccc(F)cc4O)cc4ncccc34)n2)C1` [Example 441, [3-{4-[7-(4-fluoro-2-hydroxyphenyl)quinolin-5-yl]-2H-1,2,3-triazol-2-yl}-1-(methylsulfonyl)azetidin-3-yl]acetonitrile] were, in that order, more than 10 µM, 1.1 µM, more than 10 µM and more than 10 µM.
In the same order, the values of `CS(=O)(=O)N1CC(CC#N)(n2ncc(-c3cc(-c4cc(F)ccc4O)cc4ncccc34)n2)C1` [Example 442] are more than 10 µM, 7.54 µM, more than 10 µM and more than 10 µM.
In the same order, the values of `CS(=O)(=O)N1CC(CC#N)(n2ncc(-c3cc(-c4cc(O)cc(F)c4)cc4ncccc34)n2)C1` [Example 443] are more than 10 µM, 0.631 µM, 6.46 µM and more than 10 µM.
Consider `CS(=O)(=O)N1CC(CC#N)(n2ncc(-c3cc(-c4ccc(O)c(F)c4)cc4ncccc34)n2)C1` [Example 444], for which the IC50 at JAK1 is 1.24 µM; on TYK2 it was 0.077 µM; on JAK2, 1.18 µM; on JAK3, more than 10 µM.
`CS(=O)(=O)N1CC(CC#N)(n2ncc(-c3cc(-c4cccc(CO)c4F)cc4ncccc34)n2)C1` [Example 445, [3-(4-{7-[2-fluoro-3-(hydroxymethyl)phenyl]quinolin-5-yl}-2H-1,2,3-triazol-2-yl)-1-(methylsulfonyl)azetidin-3-yl]acetonitrile]: the IC50 is more than 10 µM on JAK1, 0.33 µM at TYK2, 5.61 µM at JAK2 and more than 10 µM on JAK3.
In the case of `CS(=O)(=O)N1CC(CC#N)(n2ncc(-c3cc(-c4ccc(F)c(CO)c4)cc4ncccc34)n2)C1` [Example 446, [3-(4-{7-[4-fluoro-3-(hydroxymethyl)phenyl]quinolin-5-yl}-2H-1,2,3-triazol-2-yl)-1-(methylsulfonyl)azetidin-3-yl]acetonitrile], the IC50 on JAK1 is 4.73 µM; on TYK2, 0.101 µM; on JAK2, 0.964 µM; at JAK3, more than 10 µM.
In the same order, the values of `N#CC[C@]1(n2ncc(-c3cc(-c4ccc(-c5nnn[nH]5)cc4)cc4ncccc34)n2)C[C@@H](C#N)C1` [Example 447, cis-3-(cyanomethyl)-3-(4-{7-[4-(1H-tetrazol-5-yl)phenyl]quinolin-5-yl}-2H-1,2,3-triazol-2-yl)cyclobutanecarbonitrile] are 0.18 µM, 0.017 µM, 0.16 µM and 9.4 µM.
With `CS(=O)(=O)N1CC(CC#N)(n2ncc(-c3cc(-c4ccc5c(c4)C(=O)NC5)cc4ncccc34)n2)C1` [Example 448, [1-(methylsulfonyl)-3-{4-[7-(3-oxo-2,3-dihydro-1H-isoindol-5-yl)quinolin-5-yl]-2H-1,2,3-triazol-2-yl}azetidin-3-yl]acetonitrile], the IC50 at JAK1 was more than 10 µM; on TYK2, 0.257 µM; at JAK2 it was 2.68 µM; on JAK3, more than 10 µM.
Consider `N#CC[C@]1(n2ncc(-c3cc(-c4cccc5c4NC(=O)C5)cc4ncccc34)n2)C[C@@H](C#N)C1` [Example 449, cis-3-(cyanomethyl)-3-{4-[7-(2-oxo-2,3-dihydro-1H-indol-7-yl)quinolin-5-yl]-2H-1,2,3-triazol-2-yl}cyclobutanecarbonitrile], for which the IC50 is more than 10 µM on JAK1, 0.368 µM on TYK2, 6.5 µM at JAK2 and more than 10 µM at JAK3.
As to `N#CCC1(n2ncc(-c3cc(-c4cccc5c4NC(=O)C5)cc4ncccc34)n2)CC(C#N)C1` (stereo not drawn) [Example 450, trans-3-(cyanomethyl)-3-{4-[7-(2-oxo-2,3-dihydro-1H-indol-7-yl)quinolin-5-yl]-2H-1,2,3-triazol-2-yl}cyclobutanecarbonitrile], the IC50 is more than 10 µM on JAK1, 1.43 µM on TYK2, more than 10 µM on JAK2 and more than 10 µM on JAK3.
For `CS(=O)(=O)N1CC(CC#N)(n2cnc(-c3cc(-c4ccc(=O)[nH]c4)cc4ncccc34)n2)C1` [Example 451, [1-(methylsulfonyl)-3-{3-[7-(6-oxo-1,6-dihydropyridin-3-yl)quinolin-5-yl]-1H-1,2,4-triazol-1-yl}azetidin-3-yl]acetonitrile], the IC50 on JAK1 was more than 10 µM; on TYK2 it was 0.283 µM; on JAK2, 7.16 µM; on JAK3, more than 10 µM.
Take `CS(=O)(=O)N1CC(CC#N)(n2cnc(-c3cc(-c4ccn[nH]4)cc4ncccc34)n2)C1` [Example 452, [1-(methylsulfonyl)-3-{3-[7-(1H-pyrazol-5-yl)quinolin-5-yl]-1H-1,2,4-triazol-1-yl}azetidin-3-yl]acetonitrile]: the IC50 is 7.19 µM at JAK1, 0.322 µM on TYK2, 6.81 µM on JAK2 and more than 10 µM at JAK3.
As to `CS(=O)(=O)N1CC(CC#N)(n2cnc(-c3cc(-c4cn[nH]c4)cc4ncccc34)n2)C1` [Example 453, [1-(methylsulfonyl)-3-{3-[7-(1H-pyrazol-4-yl)quinolin-5-yl]-1H-1,2,4-triazol-1-yl}azetidin-3-yl]acetonitrile], the IC50 on JAK1 is 8.3 µM; on TYK2, 0.259 µM; on JAK2, 3.18 µM; on JAK3, more than 10 µM.
In the same order, the values of `N#CC[C@]1(n2cc(-c3cc(-c4cc[nH]n4)cc4nccn34)cn2)C[C@@H](C#N)C1` [Example 454, cis-3-(cyanomethyl)-3-{4-[7-(1H-pyrazol-3-yl)imidazo[1,2-a]pyridin-5-yl]-1H-pyrazol-1-yl}cyclobutanecarbonitrile] are 0.912 µM, 0.036 µM, 0.468 µM and more than 10 µM.
Take `N#CC[C@]1(n2cc(-c3cc(-c4cc[nH]n4)cc4nccn34)cn2)C[C@H](C#N)C1` [Example 455, trans-3-(cyanomethyl)-3-{4-[7-(1H-pyrazol-3-yl)imidazo[1,2-a]pyridin-5-yl]-1H-pyrazol-1-yl}cyclobutanecarbonitrile]: the IC50 is more than 10 µM on JAK1, 0.319 µM on TYK2, 5.68 µM on JAK2 and more than 10 µM on JAK3.
For `N#CC[C@]1(n2cc(-c3cc(-c4cn[nH]c4)cc4nccn34)cn2)C[C@@H](C#N)C1` [Example 456, cis-3-(cyanomethyl)-3-{4-[7-(1H-pyrazol-4-yl)imidazo[1,2-a]pyridin-5-yl]-1H-pyrazol-1-yl}cyclobutanecarbonitrile], the IC50 is 1.31 µM on JAK1, 0.126 µM at TYK2, 0.812 µM at JAK2 and more than 10 µM at JAK3.
For the compound `Cn1cc(-c2cc(-c3cnn(C4(CC#N)CN(CC(F)(F)F)C4)c3)n3ccnc3c2)cn1` [Example 457, [3-{4-[7-(1-methyl-1H-pyrazol-4-yl)imidazo[1,2-a]pyridin-5-yl]-1H-pyrazol-1-yl}-1-(2,2,2-trifluoroethyl)azetidin-3-yl]acetonitrile], the concentration for half-maximal inhibition (IC50) at JAK1 is more than 10 µM; on TYK2, 0.252 µM; at JAK2, 3.94 µM; at JAK3 it was more than 10 µM.
Regarding `Cn1cc(-c2cc(-c3cnn([C@]4(CC#N)C[C@@H](C#N)C4)c3)n3ccnc3c2)cn1` [Example 459, trans-3-(cyanomethyl)-3-{4-[7-(1-methyl-1H-pyrazol-4-yl)imidazo[1,2-a]pyridin-5-yl]-1H-pyrazol-1-yl}cyclobutanecarbonitrile], the IC50 on JAK1 is more than 10 µM; on TYK2, 0.297 µM; at JAK2, 3.15 µM; on JAK3 it was more than 10 µM.
Consider `CO[C@H]1C[C@@](CC#N)(n2cc(-c3cc(-c4cnn(C)c4)cc4nccn34)cn2)C1` [Example 460, (cis-3-methoxy-1-{4-[7-(1-methyl-1H-pyrazol-4-yl)imidazo[1,2-a]pyridin-5-yl]-1H-pyrazol-1-yl}cyclobutyl)acetonitrile], for which the IC50 is more than 10 µM on JAK1, 0.395 µM on TYK2, 5.36 µM on JAK2 and more than 10 µM on JAK3.
As to `Cc1cc(-c2cc(-c3cnn([C@]4(CC#N)C[C@@H](C#N)C4)c3)n3ccnc3c2)[nH]n1` [Example 461, trans-3-(cyanomethyl)-3-{4-[7-(3-methyl-1H-pyrazol-5-yl)imidazo[1,2-a]pyridin-5-yl]-1H-pyrazol-1-yl}cyclobutanecarbonitrile], the IC50 was 1.56 µM on JAK1, 0.02 µM at TYK2, 0.389 µM on JAK2 and more than 10 µM at JAK3.
In the same order, the values of `Cc1cc(-c2cc(-c3cnn([C@]4(CC#N)C[C@H](C#N)C4)c3)n3ccnc3c2)n[nH]1` [Example 462, cis-3-(cyanomethyl)-3-{4-[7-(5-methyl-1H-pyrazol-3-yl)imidazo[1,2-a]pyridin-5-yl]-1H-pyrazol-1-yl}cyclobutanecarbonitrile] are 0.873 µM, 0.02 µM, 0.188 µM and more than 10 µM.
